Results: ChEMBL document CHEMBL5729211, “Amine compound for inhibiting SSAO/VAP-1 and use thereof” (2022)

Biological target: T1, Amine oxidase [copper-containing] 3 (Homo sapiens, UniProt Q16853)
T1 sequence (Q16853 whole entry): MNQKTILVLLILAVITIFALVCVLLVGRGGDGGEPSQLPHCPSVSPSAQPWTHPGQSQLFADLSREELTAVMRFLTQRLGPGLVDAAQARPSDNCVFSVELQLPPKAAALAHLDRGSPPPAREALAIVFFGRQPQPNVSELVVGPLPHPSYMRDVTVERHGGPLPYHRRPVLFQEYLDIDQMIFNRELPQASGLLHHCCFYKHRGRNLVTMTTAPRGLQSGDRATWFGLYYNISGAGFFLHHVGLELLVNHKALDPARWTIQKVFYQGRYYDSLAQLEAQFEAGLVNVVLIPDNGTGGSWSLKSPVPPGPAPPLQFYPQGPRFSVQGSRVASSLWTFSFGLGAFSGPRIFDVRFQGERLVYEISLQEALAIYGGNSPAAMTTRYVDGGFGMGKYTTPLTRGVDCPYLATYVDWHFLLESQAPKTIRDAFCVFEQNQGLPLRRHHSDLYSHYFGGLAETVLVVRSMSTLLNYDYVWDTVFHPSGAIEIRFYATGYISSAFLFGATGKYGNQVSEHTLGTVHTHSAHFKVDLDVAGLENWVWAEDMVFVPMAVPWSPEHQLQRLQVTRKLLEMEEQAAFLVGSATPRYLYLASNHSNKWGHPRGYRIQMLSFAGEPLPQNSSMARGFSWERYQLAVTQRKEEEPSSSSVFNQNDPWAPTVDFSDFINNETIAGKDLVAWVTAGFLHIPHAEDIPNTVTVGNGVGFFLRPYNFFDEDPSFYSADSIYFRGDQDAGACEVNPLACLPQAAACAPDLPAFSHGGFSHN
Test: Biological Assay: 1. Determination of Inhibitory Activity of Human Recombinant SSAO/VAP-1Test purpose: The following methods can be used to determine the inhibitory activity of the compounds described in the examples of the invention for human recombinant SSAO/VAP-1.Test Materials:Human recombinant SSAO/VAP-1 (VAP-1, human) purchased from Sigma, Cat. No. SRP6241;Amplex® Red Monoamine Oxidase Assay Kit purchased from Invitrogen, Cat. No. A12214;384-Well plate purchased from Corning, Cat. No. 6005174;Amplex® Red Hydrogen PeroxidePeroxidase Assay Kit purchased from Invitrogen, Cat. No. A22188.Benzylamine hydrochloride purchased from Sigma, Cat. No. B5136-25G;DMSO (Dimethyl Sulfoxide) purchased from Sigma, Cat. No. D2650-100ML;Test Method:The test compound was dissolved in DMSO and diluted to 10 concentrations in 4-fold serial dilution. In 384 well plates, 25 μL of human recombinant SSAO/VAP-1 (1.6 μg/ml) was added to each well. 100 nL of test compounds with different concentrations were added to each well containing human recombinant SSAO/VAP-1 and incubated at room temperature for 30 min. After 30 min incubation, 25 μl of Amplex® red monoamine oxidase assay kit (containing a reaction mixture of 200 μm Amplex Red reagent, 1 U/ml HRP and 1 mm benzylamine hydrochloride) was added to the corresponding well, and incubated at room temperature and dark for 60 min. After 60 min, the relative fluorescence unit (RFU) was read by using PerkinElmer's Envision at 530-560 nm excitation and 590 nm emission. The curve was drawn by using the graph pad prism 5 software, and the IC50 value was calculated. The results were shown in table 1, wherein the compound listed in table 1 is the compound in the preparation examples with the same compound number:

Question: With NC/C(=C\F)COc1ccc2c(c1)CCN(CC1CCOCC1)C2=O as the molecule, how does the IC50 read?
Answer: 0.22 nM

Question: COc1ncc(N2CCc3cc(OC/C(=C/F)CN)ccc3C2=O)cn1 was tested. Which IC50 did it give?
Answer: 1.44 nM

Question: How did the IC50 turn out when NC/C(=C/F)COc1ccc2c(c1)CCN(c1ccccn1)C2=O was run?
Answer: 0.77 nM
